Assay results published in US10369145B2, “Coumarin derivatives and methods of use in treating hyperproliferative diseases” (DISCOVERYBIOMED, INC., priority 2013, dated 2019).

What was measured:
HL-60 = assay: NCI 60 panel: HL-60 (Leukemia); format: cell-based
Description: (§2) TGI means the drug concentration resulting in total growth inhibition or “cytostasis.” LC50 is the concentration of drug resulting in a 50% reduction in the measured cytosolic ATP at the end of the drug treatment as compared to that at the beginning, indicating a net loss of cells following treatment (cytotoxicity).

A549 = assay: NCI 60 panel: A549 (Non-Small Cell Lung Cancer); format: cell-based
Description: as §2

NCI-H322M = assay: NCI 60 panel: NCI-H322M (Non-Small Cell Lung Cancer); format: cell-based
Description: as §2

KM12 = assay: NCI 60 panel: KM12 (Colon Cancer); format: cell-based
Description: as §2

SW-620 = assay: NCI 60 panel: SW-620 (Colon Cancer); format: cell-based
Description: as §2

SF-539 = assay: NCI 60 panel: SF-539 (CNS Cancer); format: cell-based
Description: as §2

MDA-MB-435 = assay: NCI 60 panel: MDA-MB-435 (Melanoma); format: cell-based
Description: as §2

UACC-257 = assay: NCI 60 panel: UACC-257 (Melanoma); format: cell-based
Description: as §2

UO-31 = assay: NCI 60 panel: UO-31 (Renal Cancer); format: cell-based
Description: as §2

DU-145 = assay: NCI 60 panel: DU-145 (Prostate Cancer); format: cell-based
Description: as §2

MDA-MB-231 = assay: NCI 60 panel: MDA-MB-231 (Breast Cancer); format: cell-based
Description: as §2

BT-549 = assay: NCI 60 panel: BT-549 (Breast Cancer); format: cell-based
Description: as §2

U118MG = assay: Complementary DBM in vitro profiling: U118MG (CNS Cancer); format: cell-based
Description: The compounds described herein are effective for inhibiting cellular proliferation in hyperproliferative cell types. To study the effects of these compounds, an assay was developed to differentiate the effects of the compounds on proliferating versus confluent cells. The assay design generates a proliferating density 24 hours after seeding and provides a 3-day active cell growth/doubling window in which to gauge the anti-proliferative effect of the compounds described herein. […] In this 3-day growth window, cell number increases with daily doublings across the 72-hour period (see FIG. 1).
In each assay design, compounds were added at the 24-hour timepoint after cell seeding. The effect of the compounds, relative to vehicle control and to VelCade (a proteasome inhibitor approved in the U.S. for treating relapsed multiple myeloma and mantle cell lymphoma) as a positive control, was assessed across the 3-day growth window for proliferating cells and on an already near confluent culture of cells for the same time period. Normal cells were handled in the same manner, with some adjustment of seeding density needed in select cases. […]
Cell number at the end of the assay was determined using the CELLTITER-GLO Luminescent Cell Viability Assay (Promega; Madison, Wis.). The CELLTITER-GLO Luminescent Cell Viability Assay is a homogeneous method of determining the number of viable cells in culture based on quantitation of the ATP present, an indicator of metabolically active cells. IC50 values were calculated. […]
(§1) For a typical screening experiment to identify the compounds, cells were seeded into 96- or 384-well microtiter plates at plating densities pre-determined for each cell line to ensure drug exposure occurs during the proliferative phase well before confluency is reached. […] Values were calculated for each of these three parameters if the level of activity was reached; however, if the effect was not reached or was exceeded, the value for that parameter was expressed as greater or less than the maximum or minimum concentration tested.

NCI-60 cell panel = assay: NCI-60 cell panel, whole panel; format: cell-based, human; conditions: average in the NCI-60 cell panel
myeloma cells = format: cell-based
Description: as §1, with “reached. After seeding, cells were incubated for 24 h prior to addition of experimental drugs. After 24 h, a test plate was assayed (CellTiterGlo—measurement of cytosolic ATP) to determine a baseline measurement of the cell population for each cell line at the time of drug addition. Experimental drugs were then added and cells were cultured for a 48 h drug exposure window.” for “reached.”

[1] = tested on: U251MG glioblastoma cells; assay: Propidium iodide-based cell cycle analysis; conditions: 24 h
Description: Cell cycle analysis was performed on U251-MG cells to determine at what point in the cell cycle the compounds described herein were acting. U251MG glioblastoma cells were treated for 24 h with increasing concentrations of Compound DBM 228.
However, at higher nM doses, the cells appear to progress toward apoptosis and programmed cell death, given the higher % of cells in pre-G0/G1.

[2] = read-out: LC50 (the source's name)
[3] = myeloma cells, 48 h drug exposure

SMILES: COc1ccccc1Nc1nc(-c2cc3cccc(N)c3oc2=O)cs1 [Compound DBM 228]
- GI50 (HL-60): 34 nM
- TGI (HL-60): 137 nM
- CC50 (HL-60; [2]): 825 nM
- GI50 (A549): 97 nM
- TGI (A549): 22600 nM
- CC50 (A549; [2]): > 100000 nM
- GI50 (NCI-H322M): 672 nM
- TGI (NCI-H322M): 25900 nM
- CC50 (NCI-H322M; [2]): 93300 nM
- GI50 (KM12): 70.5 nM
- TGI (KM12): 13400 nM
- CC50 (KM12; [2]): > 100000 nM
- GI50 (SW-620): 64 nM
- TGI (SW-620): >100000 nM
- CC50 (SW-620; [2]): > 100000 nM
- GI50 (SF-539): 109 nM
- TGI (SF-539): 850 nM
- CC50 (SF-539; [2]): 29800 nM
- GI50 (MDA-MB-435): 23.1 nM
- TGI (MDA-MB-435): 67.9 nM
- CC50 (MDA-MB-435; [2]): 69500 nM
- TGI (UACC-257): 33700 nM
- CC50 (UACC-257; [2]): > 100000 nM
- GI50 (UO-31): 1460 nM
- TGI (UO-31): 43000 nM
- CC50 (UO-31; [2]): > 100000 nM
- GI50 (DU-145): 356 nM
- TGI (DU-145): 5310 nM
- CC50 (DU-145; [2]): 41000 nM
- GI50 (MDA-MB-231): 1370 nM
- TGI (MDA-MB-231): 12000 nM
- CC50 (MDA-MB-231; [2]): > 100000 nM
- GI50 (BT-549): 239 nM
- TGI (BT-549): 12300 nM
- CC50 (BT-549; [2]): > 100000 nM
- GI50 (U118MG): 2710 nM
- TGI (U118MG): 7850 nM
- CC50 (U118MG; [2]): > 30000 nM
- GI50 (NCI-60 cell panel): 250 nM
- CC50 (myeloma cells): > 4000 nM
- GI50 (myeloma cells; [3]): 160 nM
- TGI (myeloma cells; [3]): 271 nM
- percentage of cells in G0/G1 ([1]; 40 nM): 52.2%
- percentage of cells in G2/M ([1]; 40 nM): 30.2%
- percentage of cells in Pre-G0/G1 ([1]; 40 nM): 3.2%
- percentage of cells in S ([1]; 40 nM): 14.4%
- percentage of cells in G0/G1 ([1]; 100 nM): 19.7%
- percentage of cells in G2/M ([1]; 100 nM): 41.1%
- percentage of cells in Pre-G0/G1 ([1]; 100 nM): 13.6%
- percentage of cells in S ([1]; 100 nM): 25.6%
- percentage of cells in G0/G1 ([1]; 400 nM): 1.8%
- percentage of cells in G2/M ([1]; 400 nM): 49.3%
- percentage of cells in Pre-G0/G1 ([1]; 400 nM): 43.1%
- percentage of cells in S ([1]; 400 nM): 5.8%
- cell cycle effect, in words ([1]; increasing concentrations): G2/M arrest
